Data from the supplement of paper PMC6331611.
Values after ≈ are worked out from the molar mass of the structure shown. Where a name gives a salt, the structure may show the parent alone.

Assays:
[1] = system: RAW264.7; assay: cytotoxicity (LDH release relative to maximum lysis); higher = more toxic; details: 50 µM; 2 h
[2] = system: Salmonella enterica serovar Typhimurium SL1344
[3] = system: Salmonella enterica serovar Typhimurium SL1344; assay: intracellular MIC (10-fold luminescence reduction); higher = less potent; details: RAW264.7 macrophages

Row | MIC ([2]; LPM pH 5.8) [µM] | MIC ([2]; MHB) [µM] | MIC ([2]; MOPS glucose minimal medium) [µM] | intracellular MIC [3] [µM] | SMILES | cytotoxicity [1] [%]
1 | ≤ 0.78 | > 50 | 1.56 (≈ 0.384 µg/mL) | 6.25 | C[C@H]1O[C@@H](n2cc(F)c(=O)[nH]c2=O)[C@H](O)[C@@H]1O [DOXIFLURIDINE] | 13
2 | 1.56 | 6.25 | 6.25 | ≤ 0.78 | C[C@H]1c2cccc(O)c2C(=O)C2=C(O)[C@]3(O)C(=O)C(C(N)=O)=C(O)[C@@H](N(C)C)[C@@H]3[C@@H](O)[C@@H]21 [DOXYCYCLINE HYDROCHLORIDE] | 8.01
3 | > 50 | > 50 | 50 | > 50 | O.O.O=C([O-])CN(CCN(CC(=O)[O-])CC(=O)O)CC(=O)O.[Na+].[Na+] [EDETATE DISODIUM] | 19.1
4 | 6.25 (≈ 2 µg/mL) | ≤ 0.78 | ≤ 0.78 | 3.13 | CCn1cc(C(=O)O)c(=O)c2cc(F)c(N3CCNCC3)nc21 [ENOXACIN] | 20.8
5 | > 50 | > 50 | > 50 | 1.56 | CC[C@H]1OC(=O)[C@H](C)[C@@H](O[C@H]2C[C@@](C)(OC)[C@@H](O)[C@H](C)O2)[C@H](C)[C@@H](O[C@@H]2O[C@H](C)C[C@H](N(C)C)[C@H]2O)[C@](C)(O)C[C@@H](C)C(=O)[C@H](C)[C@@H](O)[C@]1(C)O [ERYTHROMYCIN] | 6.32
6 | > 50 | > 50 | > 50 | > 50 | C[C@]12CC[C@@H]3c4ccc(OC(=O)c5ccccc5)cc4CC[C@H]3[C@@H]1CC[C@@H]2O [ESTRADIOL BENZOATE] | 20.3
7 | > 50 | > 50 | > 50 | > 50 | CCOc1ccc(Cc2nccc3cc(OCC)c(OCC)cc23)cc1OCC [ETHAVERINE HYDROCHLORIDE] | 12.8
8 | > 50 | > 50 | > 50 | ≤ 0.78 | CCN(CC)C(C)CN1c2ccccc2Sc2ccccc21 (stereo not given) [ETHOPROPAZINE HYDROCHLORIDE] | 11.8
9 | ≤ 0.78 | 12.5 (≈ 4.48 µg/mL) | 6.25 (≈ 2.24 µg/mL) | 6.25 | CS(=O)(=O)c1ccc([C@@H](O)[C@@H](CF)NC(=O)C(Cl)Cl)cc1 [FLORFENICOL] | 21.3
10 | ≤ 0.78 | ≤ 0.78 | ≤ 0.78 | > 50 | O=c1[nH]c(=O)n([C@H]2C[C@H](O)[C@@H](CO)O2)cc1F [FLOXURIDINE] | 18.7
11 | ≤ 0.78 | 6.25 (≈ 1.63 µg/mL) | 1.56 (≈ 0.408 µg/mL) | > 50 | CC1CCc2cc(F)cc3c(=O)c(C(=O)O)cn1c23 (stereo not given) [FLUMEQUINE] | 20.1
12 | ≤ 0.78 | > 50 | ≤ 0.78 | ≤ 0.78 | O=c1[nH]cc(F)c(=O)[nH]1 [FLUOROURACIL] | 8.29
13 | 6.25 (≈ 1.41 µg/mL) | 12.5 (≈ 2.81 µg/mL) | 12.5 (≈ 2.81 µg/mL) | ≤ 0.78 | O=C1OCCN1/N=C/c1ccc([N+](=O)[O-])o1 [FURAZOLIDONE] | 6.45
14 | ≤ 0.78 | ≤ 0.78 | ≤ 0.78 | ≤ 0.78 | COc1c(N2CCNC(C)C2)c(F)cc2c(=O)c(C(=O)O)cn(C3CC3)c12 (stereo not given) [GATIFLOXACIN] | 21.7
15 | ≤ 0.78 | ≤ 0.78 | ≤ 0.78 | 1.56 | CO/N=C1\CN(c2nc3c(cc2F)c(=O)c(C(=O)O)cn3C2CC2)CC1CN (stereo not given) [GEMIFLOXACIN MESYLATE] | 5.86
16 | 25 (≈ 8.49 µg/mL) | > 50 | > 50 | > 50 | CCCCC(CC)CN1CN(CC(CC)CCCC)CC(C)(N)C1 (stereo not given) [HEXETIDINE] | 49.5
17 | > 50 | > 50 | > 50 | 1.56 | CCCCCN(C)CCC(O)(P(=O)(O)O)P(=O)(O)O [IBANDRONATE SODIUM] | 6.92
18 | ≤ 0.78 | ≤ 0.78 | ≤ 0.78 | ≤ 0.78 | C[C@H]1COc2c(N3CCN(C)CC3)c(F)cc3c(=O)c(C(=O)O)cn1c23 [LEVOFLOXACIN] | 21
19 | > 50 | > 50 | > 50 | > 50 | N[C@@H](Cc1cc(I)c(Oc2ccc(O)c(I)c2)c(I)c1)C(=O)O [LIOTHYRONINE] | 6.23

Row | MIC ([2]; LPM pH 5.8) [µM] | MIC ([2]; MHB) [µM] | MIC ([2]; MOPS glucose minimal medium) [µM] | intracellular MIC [3] [µM] | SMILES | cytotoxicity [1] [%]
20 | 50 (≈ 10.3 µg/mL) | > 50 | > 50 | > 50 | CCOC(=O)Nc1nc2ccccc2[nH]1 [LOBENDAZOLE] | 21.1
21 | 1.56 | ≤ 0.78 | ≤ 0.78 | ≤ 0.78 | CCn1cc(C(=O)O)c(=O)c2cc(F)c(N3CCNC(C)C3)c(F)c21 (stereo not given) [LOMEFLOXACIN HYDROCHLORIDE] | 15.9
22 | > 50 | > 50 | > 50 | > 50 | CCCCc1nc(Cl)c(CO)n1Cc1ccc(-c2ccccc2-c2nnn[nH]2)cc1 [LOSARTAN] | 5.92
23 | > 50 | > 50 | > 50 | ≤ 0.78 | Cc1ccc(Nc2c(F)cccc2Cl)c(CC(=O)O)c1 [LUMIRACOXIB] | 7.05
24 | > 50 | > 50 | > 50 | 1.56 | NCc1ccc(S(N)(=O)=O)cc1 [MAFENIDE HYDROCHLORIDE] | 7.52
25 | > 50 | > 50 | > 50 | 3.13 | CNCCCC12CCC(c3ccccc31)c1ccccc12 [MAPROTILINE HYDROCHLORIDE] | 34
26 | ≤ 0.78 | ≤ 0.78 | ≤ 0.78 | 3.13 | C=C1c2c(Cl)ccc(O)c2C(=O)C2=C(O)[C@]3(O)C(=O)C(C(N)=O)=C(O)[C@@H](N(C)C)[C@@H]3[C@@H](O)[C@H]12.O=C(O)c1cc(S(=O)(=O)O)ccc1O [MECLOCYCLINE SULFOSALICYLATE] | 16.3
27 | > 50 | > 50 | > 50 | > 50 | Cc1ccc(Cl)c(Nc2ccccc2C(=O)O)c1Cl [MECLOFENAMATE SODIUM] | 7.81
28 | > 50 | > 50 | > 50 | > 50 | CC(=O)[C@H]1CC[C@H]2[C@@H]3C[C@H](C)C4=CC(=O)CC[C@]4(C)[C@H]3[C@@H](O)C[C@]12C [MEDRYSONE] | 7.6
29 | > 50 | > 50 | > 50 | 1.56 | CCCNC(C)(C)COC(=O)c1ccccc1 [MEPRYLCAINE HYDROCHLORIDE] | 6.92
30 | 3.13 (≈ 1.2 µg/mL) | 12.5 (≈ 4.79 µg/mL) | 6.25 (≈ 2.4 µg/mL) | 3.13 | C[C@@H](O)[C@H]1C(=O)N2C(C(=O)O)=C(S[C@@H]3CN[C@H](C(=O)N(C)C)C3)[C@H](C)[C@H]12 [MEROPENEM] | 14.9
31 | ≤ 0.78 | 6.25 | 3.13 | 3.13 | C=C1c2cccc(O)c2C(=O)C2=C(O)[C@]3(O)C(=O)C(C(N)=O)=C(O)[C@@H](N(C)C)[C@@H]3[C@@H](O)[C@H]12 [METHACYCLINE HYDROCHLORIDE] | 13.8
32 | > 50 | > 50 | > 50 | > 50 | C[C@H]1C[C@@H]2[C@H]([C@@H](O)C[C@@]3(C)[C@H]2CC[C@]3(O)C(=O)CO)[C@@]2(C)C=CC(=O)C=C12 [METHYLPREDNISOLONE] | 8.21
33 | ≤ 0.78 | 12.5 | 6.25 | 12.5 | CN(C)c1ccc(O)c2c1C[C@H]1C[C@H]3[C@H](N(C)C)C(O)=C(C(N)=O)C(=O)[C@@]3(O)C(O)=C1C2=O [MINOCYCLINE HYDROCHLORIDE] | 21
34 | > 50 | > 50 | > 50 | > 50 | COc1c(N2C[C@@H]3CCCN[C@@H]3C2)c(F)cc2c(=O)c(C(=O)O)cn(C3CC3)c12 [MOXIFLOXACIN HYDROCHLORIDE] | 24.3
35 | ≤ 0.78 | > 50 | 25 (≈ 12.5 µg/mL) | 25 | C/C(=C\C(=O)OCCCCCCCCC(=O)O)C[C@@H]1OC[C@H](C[C@@H]2O[C@H]2[C@@H](C)[C@H](C)O)[C@@H](O)[C@H]1O [MUPIROCIN] | 15.4
36 | ≤ 0.78 | 3.13 (≈ 1.13 µg/mL) | 1.56 (≈ 0.562 µg/mL) | 1.56 | CC1CCc2c(N3CCC(O)CC3)c(F)cc3c(=O)c(C(=O)O)cn1c23 (stereo not given) [NADIFLOXACIN] | 12.7
37 | ≤ 0.78 | 25 (≈ 5.81 µg/mL) | 6.25 (≈ 1.45 µg/mL) | > 50 | CCn1cc(C(=O)O)c(=O)c2ccc(C)nc21 [NALIDIXIC ACID] | 16
38 | 12.5 (≈ 4.86 µg/mL) | > 50 | > 50 | > 50 | COC(=O)C1=C(C)NC(C)=C(C(=O)OCC(C)C)C1c1ccccc1[N+](=O)[O-] (stereo not given) [NISOLDIPINE] | 20.8

Row | SMILES | MIC ([2]; LPM pH 5.8) [µM] | MIC ([2]; MHB) [µM] | MIC ([2]; MOPS glucose minimal medium) [µM] | intracellular MIC [3] [µM] | cytotoxicity [1] [%]
39 | Nc1ccncc1 [FAMPRIDINE] | > 50 | > 50 | > 50 | > 50 | 20.4
40 | CN1C[C@H](CNC(=O)OCc2ccccc2)C[C@@H]2c3cccc4c3c(cn4C)C[C@H]21 [METERGOLINE] | > 50 | > 50 | > 50 | ≤ 0.78 | 16.2
41 | CO[C@]12C[C@@H](COC(=O)c3cncc(Br)c3)CN(C)[C@@H]1Cc1cn(C)c3cccc2c13 [NICERGOLINE] | > 50 | > 50 | > 50 | 25 | 20.4
